Experimental data reported in the supplement of paper PMC10307832.

How the values were obtained:
Experiment in all cases: relative viability (nuclei count vs DMSO), 5 days (fraction); higher = more cells survive
201T = system: 201T
Procedure, shortened: (§1)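 Relative viability equals treated-well nuclei counts divided by vehicle-well nuclei counts. Counts came from 4× images of lung cancer cell lines grown in 1536-well plates for 5 days after pin-tool dosing on the day after seeding. Dosing used one drug alone or a fixed anchor-drug dose plus five library-drug doses (not always all listed) in √10 steps, and values are medians of duplicate plates.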

HCC-78 = system: HCC-78
Procedure, shortened: as §1

HARA = system: HARA
Procedure, shortened: as §1

NCI-H2023 = system: NCI-H2023
Procedure, shortened: as §1

NCI-H2009 = system: NCI-H2009
Procedure, shortened: as §1

NCI-H460 = system: NCI-H460
Procedure, shortened: as §1

NCI-H1993 = system: NCI-H1993
Procedure, shortened: as §1

LCLC-97TM1 = system: LCLC-97TM1
Procedure, shortened: as §1

HCC-15 = system: HCC-15
Procedure, shortened: as §1

LCLC-103H = system: LCLC-103H
Procedure, shortened: as §1

HCC-44 = system: HCC-44
Procedure, shortened: as §1

RERF-LC-KJ = system: RERF-LC-KJ
Procedure, shortened: as §1

A-427 = system: A-427
Procedure, shortened: as §1

LOU-NH91 = system: LOU-NH91
Procedure, shortened: as §1

NCI-H1650 = system: NCI-H1650
Procedure, shortened: as §1

SW 1573 = system: SW 1573
Procedure, shortened: as §1

ChaGo-K-1 = system: ChaGo-K-1
Procedure, shortened: as §1

NCI-H1734 = system: NCI-H1734
Procedure, shortened: as §1

NCI-H2126 = system: NCI-H2126
Procedure, shortened: as §1

NCI-H650 = system: NCI-H650
Procedure, shortened: as §1

HCC-366 = system: HCC-366
Procedure, shortened: as §1

COR-L23 = system: COR-L23
Procedure, shortened: as §1

NCI-H441 = system: NCI-H441
Procedure, shortened: as §1

O=c1[nH]c2ccccc2n1C1CCN(CCCC(c2ccc(F)cc2)c2ccc(F)cc2)CC1 [Pimozide] + O=C(CCCCCCC(=O)Nc1ccccc1)NO [Vorinostat] (partner 1 µM)
relative viability (201T; first compound 0.08 µM): 0.881 | relative viability (201T; first compound 0.253 µM): 0.964 | relative viability (201T; first compound 0.8 µM): 0.863 | relative viability (201T; first compound 2.53 µM): 0.942 | relative viability (201T; first compound 8 µM): 0.72 | relative viability (HCC-78; first compound 0.08 µM): 0.371 | relative viability (HCC-78; first compound 0.8 µM): 0.369 | relative viability (HCC-78; first compound 2.53 µM): 0.453 | relative viability (HCC-78; first compound 8 µM): 0.447 | relative viability (HARA; first compound 0.08 µM): 0.433 | relative viability (HARA; first compound 0.253 µM): 0.477 | relative viability (HARA; first compound 0.8 µM): 0.519 | relative viability (HARA; first compound 2.53 µM): 0.484 | relative viability (HARA; first compound 8 µM): 0.399 | relative viability (NCI-H2023; first compound 0.08 µM): 0.583 | relative viability (NCI-H2023; first compound 0.253 µM): 0.747 | relative viability (NCI-H2023; first compound 0.8 µM): 0.353 | relative viability (NCI-H2023; first compound 2.53 µM): 0.547 | relative viability (NCI-H2023; first compound 8 µM): 0.484 | relative viability (NCI-H2009; first compound 0.08 µM): 0.639 | relative viability (NCI-H2009; first compound 0.253 µM): 0.764 | relative viability (NCI-H2009; first compound 0.8 µM): 0.651 | relative viability (NCI-H2009; first compound 2.53 µM): 0.698 | relative viability (NCI-H2009; first compound 8 µM): 0.694 | relative viability (NCI-H460; first compound 0.08 µM): 0.727 | relative viability (NCI-H460; first compound 0.253 µM): 0.654 | relative viability (NCI-H460; first compound 0.8 µM): 0.711 | relative viability (NCI-H460; first compound 2.53 µM): 0.681 | relative viability (NCI-H460; first compound 8 µM): 0.664 | relative viability (NCI-H1993; first compound 0.08 µM): 0.502 | relative viability (NCI-H1993; first compound 0.253 µM): 0.966 | relative viability (NCI-H1993; first compound 0.8 µM): 0.68 | relative viability (NCI-H1993; first compound 2.53 µM): 0.857 | relative viability (NCI-H1993; first compound 8 µM): 0.533 | relative viability (LCLC-97TM1; first compound 0.08 µM): 0.753 | relative viability (LCLC-97TM1; first compound 0.253 µM): 0.738 | relative viability (LCLC-97TM1; first compound 0.8 µM): 0.455 | relative viability (LCLC-97TM1; first compound 2.53 µM): 0.526 | relative viability (LCLC-97TM1; first compound 8 µM): 0.584 | relative viability (HCC-15; first compound 0.08 µM): 0.828 | relative viability (HCC-15; first compound 0.253 µM): 0.746 | relative viability (HCC-15; first compound 0.8 µM): 0.83 | relative viability (HCC-15; first compound 2.53 µM): 0.788 | relative viability (HCC-15; first compound 8 µM): 0.703 | relative viability (LCLC-103H; first compound 0.08 µM): 0.814 | relative viability (LCLC-103H; first compound 0.253 µM): 0.802 | relative viability (LCLC-103H; first compound 0.8 µM): 0.598 | relative viability (LCLC-103H; first compound 2.53 µM): 0.759 | relative viability (LCLC-103H; first compound 8 µM): 0.717 | relative viability (HCC-44; first compound 0.08 µM): 1.12 | relative viability (HCC-44; first compound 0.253 µM): 1.12 | relative viability (HCC-44; first compound 0.8 µM): 0.923 | relative viability (HCC-44; first compound 2.53 µM): 1.12 | relative viability (HCC-44; first compound 8 µM): 0.975 | relative viability (RERF-LC-KJ; first compound 0.08 µM): 0.616 | relative viability (RERF-LC-KJ; first compound 0.253 µM): 0.677 | relative viability (RERF-LC-KJ; first compound 0.8 µM): 0.612 | relative viability (RERF-LC-KJ; first compound 2.53 µM): 0.463 | relative viability (RERF-LC-KJ; first compound 8 µM): 0.613 | relative viability (A-427; first compound 0.08 µM): 0.893 | relative viability (A-427; first compound 0.253 µM): 0.875 | relative viability (A-427; first compound 0.8 µM): 0.775 | relative viability (A-427; first compound 2.53 µM): 0.854 | relative viability (A-427; first compound 8 µM): 0.815 | relative viability (LOU-NH91; first compound 0.08 µM): 0.741 | relative viability (LOU-NH91; first compound 0.253 µM): 0.883 | relative viability (LOU-NH91; first compound 0.8 µM): 0.852 | relative viability (LOU-NH91; first compound 2.53 µM): 0.98 | relative viability (LOU-NH91; first compound 8 µM): 0.872 | relative viability (NCI-H1650; first compound 0.08 µM): 0.449 | relative viability (NCI-H1650; first compound 0.253 µM): 0.571 | relative viability (NCI-H1650; first compound 0.8 µM): 0.687 | relative viability (NCI-H1650; first compound 2.53 µM): 0.591 | relative viability (NCI-H1650; first compound 8 µM): 0.546 | relative viability (SW 1573; first compound 0.08 µM): 0.83 | relative viability (SW 1573; first compound 0.253 µM): 0.63 | relative viability (SW 1573; first compound 0.8 µM): 0.579 | relative viability (SW 1573; first compound 2.53 µM): 0.323 | relative viability (SW 1573; first compound 8 µM): 0.33 | relative viability (ChaGo-K-1; first compound 0.08 µM): 0.726 | relative viability (ChaGo-K-1; first compound 0.253 µM): 0.668 | relative viability (ChaGo-K-1; first compound 0.8 µM): 0.794 | relative viability (ChaGo-K-1; first compound 2.53 µM): 0.841 | relative viability (ChaGo-K-1; first compound 8 µM): 0.758 | relative viability (NCI-H1734; first compound 0.08 µM): 0.841 | relative viability (NCI-H1734; first compound 0.253 µM): 0.739 | relative viability (NCI-H1734; first compound 0.8 µM): 0.569 | relative viability (NCI-H1734; first compound 2.53 µM): 0.763 | relative viability (NCI-H1734; first compound 8 µM): 0.847 | relative viability (NCI-H2126; first compound 0.08 µM): 0.704 | relative viability (NCI-H2126; first compound 0.253 µM): 0.818 | relative viability (NCI-H2126; first compound 0.8 µM): 0.782 | relative viability (NCI-H2126; first compound 2.53 µM): 0.785 | relative viability (NCI-H2126; first compound 8 µM): 0.868 | relative viability (NCI-H650; first compound 0.08 µM): 0.455 | relative viability (NCI-H650; first compound 0.253 µM): 0.386 | relative viability (NCI-H650; first compound 0.8 µM): 0.399 | relative viability (NCI-H650; first compound 2.53 µM): 0.454 | relative viability (NCI-H650; first compound 8 µM): 0.452 | relative viability (HCC-366; first compound 0.08 µM): 0.457 | relative viability (HCC-366; first compound 0.253 µM): 0.334 | relative viability (HCC-366; first compound 0.8 µM): 0.142 | relative viability (HCC-366; first compound 2.53 µM): 0.29 | relative viability (HCC-366; first compound 8 µM): 0.309 | relative viability (COR-L23; first compound 0.08 µM): 0.459 | relative viability (COR-L23; first compound 0.253 µM): 0.414 | relative viability (COR-L23; first compound 0.8 µM): 0.343 | relative viability (COR-L23; first compound 2.53 µM): 0.432 | relative viability (COR-L23; first compound 8 µM): 0.495 | relative viability (NCI-H441; first compound 0.08 µM): 0.699 | relative viability (NCI-H441; first compound 0.253 µM): 0.657 | relative viability (NCI-H441; first compound 0.8 µM): 0.74 | relative viability (NCI-H441; first compound 2.53 µM): 0.857 | relative viability (NCI-H441; first compound 8 µM): 0.687
